Data published in patent US9624217B2, “Dihydropyrrolopyridine inhibitors of ROR-gamma” (Vitae Pharmaceuticals, Inc., priority 2014, dated 2017).

Assays:
[1] = molecular target: recombinant RORγ Ligand Binding Domain (LBD) (Homo sapiens (Human), UniProt P51449); test: Radio-Ligand RORγ Binding Assay (Assay 1); conditions: SPA competition with 25-hydroxy [26,27-3H]-cholesterol, cell-free; read-out: RORγ Binding Ki Range
Experimental: Radio-Ligand RORγ Binding Assay (Assay 1)
Compounds of the present invention were tested for ability to bind to RORγ in a cell-free competition assay with commercially available radio-ligand (RL), 25-hydroxy [26,27-^3H]-cholesterol (PerkinElmer, Cat. #NET674250UC), for a ligand binding site on a recombinant RORγ Ligand Binding Domain (LBD) protein expressed as a 6×His-Glutathione-S-Transferase (GST) fusion. […] The plate was shaken at 700 rpm for 20 min and incubated for 10 min at rt, after which 40 μL of poly-Lys YSi SPA beads (PerkinElmer, Cat. #RPNQ0010) were added to achieve 50 μg of the beads per well. The plate was incubated on an orbital shaker for 20 min and then for 10 min without agitation at rt. SPA signal for tritium beta radiation was registered on PerkinElmer Microbeta plate reader. […] The percent inhibition vs. concentration data were fit into a four-parameter model, and IC50 values were calculated from the fit as the concentrations corresponding to the inflection points on the dose-response curves.

[2] = molecular target: full-length RORγt (Homo sapiens (Human), UniProt P51449); test: RORγt 5×RORE Assay in Jurkat Cells (Assay 2); format: cell-based; conditions: secreted Nanoluc luciferase 5×RORE reporter, 16-18 hrs, read-out: RORγt5X IC50 Range
Experimental: [formula] RORγt 5×RORE Assay in Jurkat Cells (Assay 2)
Compounds of the present invention were tested for RORγ inverse agonist activity in a cell-based, transcriptional activity assay. […] (Promega, Cat. #N1021) using KpnI and HindIII restriction sites. […] Luciferase activity in the conditioned supernatants was determined with NanoGlo® assay reagents (Promega, Cat. #N1130).

full-length RORγt, sequence (P51449 other isoform, or with tags, fused parts or gaps): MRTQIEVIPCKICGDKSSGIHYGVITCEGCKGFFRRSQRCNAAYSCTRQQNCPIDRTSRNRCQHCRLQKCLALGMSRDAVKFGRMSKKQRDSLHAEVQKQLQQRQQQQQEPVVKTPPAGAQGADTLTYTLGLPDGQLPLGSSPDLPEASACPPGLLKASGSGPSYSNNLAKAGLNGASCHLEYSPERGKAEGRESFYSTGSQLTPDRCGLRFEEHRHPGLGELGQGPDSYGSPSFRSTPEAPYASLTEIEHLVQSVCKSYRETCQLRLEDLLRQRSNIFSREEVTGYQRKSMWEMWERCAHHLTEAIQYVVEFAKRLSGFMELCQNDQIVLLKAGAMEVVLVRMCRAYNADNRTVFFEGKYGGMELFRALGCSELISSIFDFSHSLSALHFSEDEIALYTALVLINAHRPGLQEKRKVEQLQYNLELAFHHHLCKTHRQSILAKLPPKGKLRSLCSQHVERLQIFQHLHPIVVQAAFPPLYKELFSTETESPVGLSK
recombinant RORγ Ligand Binding Domain (LBD), sequence (P51449 269-508): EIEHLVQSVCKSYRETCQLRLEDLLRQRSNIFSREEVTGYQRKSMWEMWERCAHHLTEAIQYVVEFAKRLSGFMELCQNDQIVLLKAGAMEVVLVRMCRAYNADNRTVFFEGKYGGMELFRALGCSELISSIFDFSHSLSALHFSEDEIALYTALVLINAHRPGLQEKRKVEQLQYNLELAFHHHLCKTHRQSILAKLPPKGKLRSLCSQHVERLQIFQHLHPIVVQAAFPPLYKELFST

| Ki [1] | IC50 [2] | Structure (SMILES) |
| --- | --- | --- |
| < 0.1 µM | < 0.1 µM | CCS(=O)(=O)c1ccc(CC(=O)Nc2cnc3c(c2)CN(C[C@H]2CC[C@H](C(F)(F)F)CC2)[C@H]3C(C)C)cc1 [Compound 55] |
| < 0.1 µM | < 0.1 µM | CCS(=O)(=O)c1ccc(CNC(=O)c2cnc3c(c2)CN(Cc2ccc(Cl)cc2)[C@H]3C(C)C)cc1 [Compound 3] |
| < 0.1 µM | 0.1 to 1 µM | CCS(=O)(=O)c1ccc(CNC(=O)c2cnc3c(c2)CN(Cc2ccc(C#N)cc2)[C@H]3C(C)C)nc1 [Compound 35] |
| < 0.1 µM | < 0.1 µM | CCS(=O)(=O)c1ccc(CNC(=O)c2cnc3c(c2)CN(Cc2ccc(C(F)(F)F)cc2)[C@H]3C(C)C)nc1 [Compound 33] |
| < 0.1 µM | 0.1 to 1 µM | CC(C)[C@H]1c2ncc(C(=O)NCc3ccc(C#N)cc3)cc2CN1Cc1ccc(C(F)(F)F)cc1 [Compound 64] |
| < 0.1 µM | > 1 µM | CCOC(=O)c1cnc(N2Cc3cc(C(=O)NCc4ccc(S(=O)(=O)CC)cc4)cnc3[C@@H]2C(C)C)nc1C(F)(F)F [Compound 10] |
| < 0.1 µM | > 1 µM | CCS(=O)(=O)c1ccc(CNC(=O)c2cnc3c(c2)CN(CC2CCC(F)(F)CC2)[C@H]3C(C)C)nc1 [Compound 43] |
| 0.1 to 1 µM | > 1 µM | CCS(=O)(=O)c1ccc(CNC(=O)c2cnc3c(c2)C(=O)N(Cc2ccc(Cl)cc2)C3(O)C(C)C)cc1 (stereo not shown) [Compound 11] |
| < 0.1 µM | 0.1 to 1 µM | CC(C)[C@H]1c2ncc(C(=O)N[C@@H](CO)c3ccc(C#N)cc3)cc2CN1Cc1ccc(C(F)(F)F)cc1 [Compound 149] |
| < 0.1 µM | < 0.1 µM | CCS(=O)(=O)c1ccc(CNC(=O)c2cnc3c(c2)CN(Cc2ccc4c(c2)OC(F)(F)O4)[C@H]3C(C)C)nc1 [Compound 54] |
| < 0.1 µM | < 0.1 µM | CCS(=O)(=O)c1ccc(CNC(=O)c2cnc3c(c2)CN(CC2CCN(CC(F)(F)F)CC2)[C@H]3C(C)C)cc1 [Compound 49] |
| < 0.1 µM | < 0.1 µM | CC(C)[C@H]1c2ncc(C(=O)NCc3ccc(S(C)(=O)=O)cc3)cc2CN1Cc1ccc(C(F)(F)F)cc1 [Compound 22] |
| < 0.1 µM | < 0.1 µM | CCS(=O)(=O)c1ccc(CNC(=O)c2cnc3c(c2)CN(Cc2ccc(Cl)cc2)[C@H]3C(C)C)nc1 [Compound 34] |
|  | 0.1 to 1 µM | CCS(=O)(=O)c1ccc(CC(=O)Nc2cnc3c(c2)CN(Cc2ccc(Cl)cc2)[C@H]3C(C)C)cc1 [Compound 56] |
| < 0.1 µM | < 0.1 µM | CCS(=O)(=O)c1cnc(CNC(=O)c2cnc3c(c2)CN(Cc2ccc(C(F)(F)F)cc2)[C@H]3C(C)C)c(F)c1 [Compound 144] |
| < 0.1 µM | > 1 µM | CCS(=O)(=O)N1CCC(CNC(=O)c2cnc3c(c2)CN(Cc2ccc(C(F)(F)F)cc2)[C@H]3C(C)C)CC1 [Compound 109] |
| < 0.1 µM | < 0.1 µM | CCS(=O)(=O)c1ccc(CC(=O)Nc2cnc3c(c2)CN(Cc2ccc(C#N)cc2)[C@H]3C(C)C)cc1 [Compound 57] |
| < 0.1 µM | 0.1 to 1 µM | CC(C)[C@H]1c2ncc(C(=O)NCC3CCN(S(C)(=O)=O)CC3)cc2CN1Cc1ccc(C(F)(F)F)cc1 [Compound 63] |
| < 0.1 µM | > 1 µM | CCS(=O)(=O)c1ccc(CNC(=O)c2cnc3c(c2)CN(C(=O)OC(C)(C)C)[C@H]3C(C)C)nc1 [Compound 46, Tert-butyl (S)-3-(((5-(ethylsulfonyl)pyridin-2-yl)methyl)carbamoyl)-7-isopropyl-5,7-dihydro-6H-pyrrolo[3,4-b]pyridine-6-carboxylate] |
| < 0.1 µM | < 0.1 µM | CCS(=O)(=O)c1ccc(CNC(=O)c2cnc3c(c2)[C@@H](C)N(Cc2ccc(Cl)cc2)[C@H]3C(C)C)cc1 [Compound 28] |
| 0.1 to 1 µM | 0.1 to 1 µM | CC(C)[C@H]1c2ncc(C(=O)NCc3ccc(S(C)(=O)=O)cc3)cc2CN1Cc1ccc(C#N)cc1 [Compound 21] |
| < 0.1 µM | < 0.1 µM | CCS(=O)(=O)c1cnc(CNC(=O)c2cnc3c(c2)CN(Cc2ccc(C(F)(F)F)cc2)[C@H]3C(C)C)c(C)c1 [Compound 142] |
| < 0.1 µM | < 0.1 µM | CCS(=O)(=O)c1ccc(CNC(=O)c2cnc3c(c2)[C@@H](C)N(Cc2ccc(C(F)(F)F)cc2)[C@H]3C(C)C)cc1 [Compound 30] |
| < 0.1 µM | > 1 µM | CCS(=O)(=O)c1ccc(CNC(=O)c2cnc3c(c2)CN(c2ncc(C(F)(F)F)cn2)[C@H]3C(C)C)cc1 [Compound 8] |
| < 0.1 µM | > 1 µM | CC(C)[C@H]1c2ncc(C(=O)NCc3ccc(S(C)(=O)=O)cc3)cc2CN1Cc1ccc(F)cc1 [Compound 24] |

| Ki [1] | IC50 [2] | Structure (SMILES) |
| --- | --- | --- |
| > 1 µM |  | COC(=O)N1CCC(CNC(=O)c2cnc3c(c2)CN(Cc2ccc(C(F)(F)F)cc2)[C@H]3C(C)C)CC1 [Compound 110] |
| > 1 µM |  | CC(C)[C@H]1c2ncc(C(=O)NC(Cc3ccc(F)cc3)C(=O)O)cc2CN1Cc1ccc(C(F)(F)F)cc1 (stereo partly shown) [Compound 138] |
| 0.1 to 1 µM |  | CCS(=O)(=O)N1CCC(CNC(=O)c2cnc3c(c2)CN(Cc2ccc(C(F)(F)F)cc2)[C@H]3C(C)C)C1 (stereo partly shown) [Compound 106] |
| 0.1 to 1 µM |  | CC(C)[C@H]1c2ncc(C(=O)NCc3ccc(C(=O)O)cn3)cc2CN1Cc1ccc(C(F)(F)F)cc1 [Compound 151] |
| < 0.1 µM | < 0.1 µM | CCS(=O)(=O)c1ccc(CNC(=O)c2cnc3c(c2)CN(C[C@H]2CC[C@H](OC)CC2)[C@H]3C(C)C)cc1 [Compound 45] |
| > 1 µM |  | CC(C)[C@H]1c2ncc(C(=O)NCc3cccnn3)cc2CN1Cc1ccc(C(F)(F)F)cc1 [Compound 84] |
| < 0.1 µM | 0.1 to 1 µM | CCS(=O)(=O)c1ccc(CNC(=O)c2cnc3c(c2)CN(Cc2ccc(F)cc2)[C@H]3C(C)C)cc1 [Compound 7] |
| > 1 µM |  | CC(C)[C@H]1c2ncc(C(=O)NCc3ccccc3OCCN(C)C)cc2CN1Cc1ccc(C(F)(F)F)cc1 [Compound 98] |
| 0.1 to 1 µM |  | CCS(=O)(=O)N1CC(CNC(=O)c2cnc3c(c2)CN(Cc2ccc(C(F)(F)F)cc2)[C@H]3C(C)C)C1 [Compound 104] |
| > 1 µM |  | CNC(=O)[C@H]1CC[C@H](CNC(=O)c2cnc3c(c2)CN(Cc2ccc(C(F)(F)F)cc2)[C@H]3C(C)C)CC1 [Compound 108] |
| > 1 µM |  | CC(C)[C@H]1c2ncc(C(=O)NCCN3CCOCC3)cc2CN1Cc1ccc(C(F)(F)F)cc1 [Compound 77] |
| < 0.1 µM | < 0.1 µM | CCS(=O)(=O)c1ccc(CNC(=O)c2cnc3c(c2)[C@H](C)N(Cc2ccc(Cl)cc2)[C@H]3C(C)C)cc1 [Compound 29] |
| 0.1 to 1 µM |  | CC(C)[C@H]1c2ncc(C(=O)NCc3cccc(S(C)(=O)=O)c3)cc2CN1Cc1ccc(C(F)(F)F)cc1 [Compound 116] |
| 0.1 to 1 µM |  | CC(C)[C@H]1c2ncc(C(=O)NC[C@H]3CC[C@H](C#N)CC3)cc2CN1Cc1ccc(C(F)(F)F)cc1 [Compound 129] |
| > 1 µM |  | CC(C)[C@@H]1c2ncc(C(=O)NCc3ccc(S(C)(=O)=O)cc3)cc2CN1Cc1ccc(C(F)(F)F)cn1 [Compound 37] |
| > 1 µM |  | COC(=O)C(Cc1ccc(F)cc1)NC(=O)c1cnc2c(c1)CN(Cc1ccc(C(F)(F)F)cc1)[C@H]2C(C)C (stereo partly shown) [Compound 126] |
| < 0.1 µM | > 1 µM | CCS(=O)(=O)c1ccc(CNC(=O)c2cnc3c(c2)CN(CC2CCC(F)(F)CC2)[C@H]3C(C)C)cc1 [Compound 42] |
| > 1 µM |  | CC(C)NC(=O)c1cnc2c(c1)CN(Cc1ccc(C(F)(F)F)cc1)[C@H]2C(C)C [Compound 122] |
| > 1 µM |  | CC(C)[C@H]1c2ncc(C(=O)NCC(c3cccnc3)N3CCOCC3)cc2CN1Cc1ccc(C(F)(F)F)cc1 (stereo partly shown) [Compound 88] |
| > 1 µM |  | CC(C)[C@H]1c2ncc(C(=O)NCC3CN(C(=O)OC(C)(C)C)C3)cc2CN1Cc1ccc(C(F)(F)F)cc1 [Compound 68] |
| 0.1 to 1 µM |  | CC(C)[C@H]1c2ncc(C(=O)NCCC3CCOCC3)cc2CN1Cc1ccc(C(F)(F)F)cc1 [Compound 90] |
| 0.1 to 1 µM |  | CC(C)[C@H]1c2ncc(C(=O)NCc3ccc(S(C)(=O)=O)cc3)cc2CN1Cc1ccc(Cl)cn1 [Compound 23] |
| 0.1 to 1 µM |  | CC(C)[C@H]1c2ncc(C(=O)NCc3ccc(C(=O)O)cc3)cc2CN1Cc1ccc(C(F)(F)F)cc1 [Compound 147, (S)-4-((7-isopropyl-6-(4-(trifluoromethyl)benzyl)-6,7-dihydro-5H-pyrrolo[3,4-b]pyridine-3-carboxamido)methyl)benzoic acid] |
| > 1 µM |  | CC(C)[C@H]1c2ncc(C(=O)NC[C@@H]3CCN(C(=O)OC(C)(C)C)C[C@H]3O)cc2CN1Cc1ccc(C(F)(F)F)cc1 [Compound 156] |

| Structure (SMILES) | Ki [1] | IC50 [2] |
| --- | --- | --- |
| CCS(=O)(=O)c1ccc(CNC(=O)c2cnc3c(c2)CN(C(=O)OC(C)(C)C)[C@H]3C(C)C)cc1 [Compound 15, tert-butyl (S)-3-((4-(ethylsulfonyl)benzyl)carbamoyl)-7-isopropyl-5,7-dihydro-6H-pyrrolo[3,4-b]pyridine-6-carboxylate] |  | > 1 µM |
| CC(C)[C@H]1c2ncc(C(=O)N[C@H]3c4ccccc4C[C@H]3O)cc2CN1Cc1ccc(C(F)(F)F)cc1 [Compound 130] | > 1 µM |  |
